What is called EC50 is the concentration at which the effect is half-maximal. High values mean a need for much substance, low ones an effect from little substance.

This note sets out measurements from patent US12441710B2, “Substituted piperidino compounds and related methods of treatment” (Alkermes, Inc., priority 2020, dated 2025).

The structures appear in SMILES notation. Where only a bound is given, the exact number is not on record here.

In the first series the test system is human hepatocytes. The series is described as follows: Hepatocytes stability assay (human hepatocytes). It is filed as in vitro ADME. As to conditions: hepatic clearance divided by liver blood flow, fu assumed unity. As to the method: (§1) In vitro metabolic stability was assessed using cryopreserved hepatocytes from male Sprague Dawley rats and a pool of 50 mixed gender humans (BioIVT, Baltimore, MD). The incubation mixtures were prepared by mixing 250 μL of pre-warmed KHB (Krebs-Henseleit buffer) containing 2×10^6 cell/mL of hepatocytes with 250 μL of pre-warmed KHB buffer containing 2 μM of test compounds in a 48-well plate, giving a final concentration of 1 μM test compound (0.1% DMSO) and 1×10^6 cell/mL of hepatocytes. The reaction mixture was incubated at 37 degrees C. A 50 μL aliquot of incubation mixture was taken at time points (0, 15, 30, 60, 120 and 240 minutes) and transferred into a 96-well plate containing 300 μL ice-cold acetonitrile (containing 30 ng/mL of labetalol and 10 ng/mL of Naltrexone-d3 as internal standards) and immediately placed in ice to terminate the reaction. Samples were centrifuged, and supernatants were transferred into 96-well plates for liquid chromatography with tandem mass spectrometry (LC-MS/MS) analysis to monitor the depletion of the test compound. Data was calculated as percent remaining by assuming zero-minute time point peak area ratio (analyte/IS) as 100% and dividing remaining time point peak area ratios by zero-minute time point peak area ratio. Data were fitted to a first-order decay model to determine half-life. From a plot of log (ln) peak area against time, the slope of the line was determined. Subsequently, half-life (T1/2) and intrinsic clearance (CLint) were calculated using the equations below: • Elimination rate constant (k)=(−slope) • Half-life (T1/2) min=0.693/k • Intrinsic Clearance (CLint) (mL/min/million cells)=(V×0.693)/T1/2 • V=incubation volume mL/number of cells The in vitro T1/2 was converted to in vitro intrinsic clearance (CLint,hep) in units of mL/min/kg using the formula shown below: The in vitro intrinsic clearance (CLint,hep) was scaled to in vivo hepatic clearance (CL,hep) using the following equation which was adapted from a well-stirred model. [formula] where Q is the liver blood flow and fu is the fraction unbound (assumed to be unity in this case). All parameters used in the calculation are shown below (Table 4). The extraction ratio (ER) was calculated by dividing the hepatic clearance of a compound to the liver blood flow. The data reported in Table 5 were obtained according to the human hepatocytes stability assay described above.
As to `CS(=O)(=O)N[C@H]1CCN(c2ccccn2)CC1COC1CCC(c2ccccn2)CC1` (some centres unmarked) [Compound 2], the “Extraction Ratio (ER)” value turned out to be 0.89.

System in another series: not listed separately
The series is described as follows: Hepatocytes stability assay (human hepatocytes). It is filed as in vitro ADME. The following applies: both sexes, cryopreserved hepatocytes, 1 μM test compound, 1×10^6 cell/mL, read-out: CLint (μL/min/million cells). As to the method:
as §1
In the case of `CS(=O)(=O)N[C@H]1CCN(c2ccccn2)CC1COC1CCC(c2ccccn2)CC1` (some centres unmarked) [Compound 2], the hepatocyte CLint at 1 μM was 53 µL/min/1e6 cells.

Another series addresses T1, human orexin-2 receptor (OX2R) (Homo sapiens, UniProt O43614).
T1 construct: expressed in transfected cells
T1 sequence (O43614 1-444): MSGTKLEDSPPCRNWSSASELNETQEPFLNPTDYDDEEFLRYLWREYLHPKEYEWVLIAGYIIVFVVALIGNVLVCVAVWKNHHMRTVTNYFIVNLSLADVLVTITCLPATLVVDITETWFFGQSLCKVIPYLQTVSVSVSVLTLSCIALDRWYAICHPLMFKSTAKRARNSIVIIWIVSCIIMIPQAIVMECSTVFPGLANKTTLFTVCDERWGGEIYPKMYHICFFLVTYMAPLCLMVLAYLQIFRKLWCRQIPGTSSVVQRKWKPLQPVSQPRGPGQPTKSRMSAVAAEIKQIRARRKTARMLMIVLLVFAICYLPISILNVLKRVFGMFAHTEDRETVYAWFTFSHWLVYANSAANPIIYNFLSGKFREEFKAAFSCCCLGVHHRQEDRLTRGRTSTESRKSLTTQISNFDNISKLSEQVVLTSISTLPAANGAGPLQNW
Briefly: Human OX2R IP1 assay. As to conditions: T-Rex CHO cells stably overexpressing human OX2R; IP1 accumulation, 1 hr at 37 degrees C. In kind it is cell-based. As to the method:
T-Rex CHO cells stably overexpressing the human orexin-2 receptor (OX2R) were induced overnight with 1 μg/mL of doxycycline in a T225 flask. 24 hours post induction, cells were lifted with accutase and plated into a 384-well proxy plate at 30,000 cells/well. Cells were then treated with different test compounds in 1× stimulation buffer containing 10 mM Hepes, 1 mM CaCl2), 0.5 mM MgCl2, 4.2 mM KCl, 146 mM NaCl, 5.5 mM glucose, and 50 mM LiCl, pH 7.4, for 1 hr at 37 degrees C. Following incubation, the reaction was terminated by the addition of detection mix, which is composed of IP1-d2 and anti-IP1-cryptate diluted in lysis buffer as well as 1× stimulation buffer. The plates were allowed to incubate for 1 hour at room temperature and were then read in the EnVision® multimode plate reader, measuring inositol phosphate levels.
Cisbio IP1 is a cell-based functional assay quantifying the accumulation of inositol monophosphate (IP), a metabolite released as a result of orexin 2 receptor activation through the phospholipase C-Gq signaling pathway. This is a competitive immunoassay in which the IP1 produced by the cells upon receptor activation competes with the IP1 analog coupled to the d2 fluorophore (acceptor) for binding to an anti-IP1 monoclonal antibody labeled with Eu cryptate (donor). The measured HTRF-FRET based signal is inversely proportional to the IP1 concentration produced.
The EC50 values reported in Table 2 were obtained according to the human OX2R IP1 assay described above. Data are the mean EC50 values±S.E.M. The compound methyl (2R,3S)-3-((methylsulfonyl)amino)-2-(((cis-4-phenylcyclohexyl)oxy)methyl)-piperidine-1-carboxylate (sometimes referred to herein as Reference Compound A) is a reference compound which is disclosed in Example 5 of PCT publication no. WO2017/135306.
Take `CS(=O)(=O)N[C@H]1CCN(c2ccccn2)C[C@H]1CO[C@H]1CC[C@@H](c2ccccn2)CC1` [Compound 2]: the EC50 is under 100 nM. On the same count and under the same terms, as for `CS(=O)(=O)N[C@H]1CCN(Cc2ccccc2)C[C@H]1CO[C@H]1CC[C@@H](c2ccccc2)CC1` [Compound 36], the figure is over 1000 nM; as for `CS(=O)(=O)N[C@H]1CCN(c2ccccn2)C[C@H]1CO[C@H]1CC[C@@H](c2ccncc2)CC1` [Compound 4], under 100 nM.

In turn, `CS(=O)(=O)N[C@H]1CCN(c2ccccn2)C[C@H]1CO[C@H]1CC[C@@H](c2cnccn2)CC1` [Compound 9] yielded an EC50 of over 1000 nM. Still for that read-out and setting: as for `CS(=O)(=O)N[C@H]1CCN(c2ccccn2)C[C@H]1CO[C@H]1CC[C@@H](c2cncnc2)CC1` [Compound 12], the figure is over 1000 nM; as for `CS(=O)(=O)N[C@H]1CCN(c2nccc3ocnc23)C[C@H]1CO[C@H]1CC[C@@H](c2ccccc2)CC1` [Compound 45], under 100 nM. On to `CS(=O)(=O)N[C@H]1CCN(c2nccc3ncnn23)C[C@H]1CO[C@H]1CC[C@@H](c2ccccc2)CC1` [Compound 44], for which the EC50 lay within 100 to 1000 nM. `Cc1cccc([C@H]2CC[C@@H](OC[C@@H]3CN(c4ccccn4)CC[C@@H]3NS(C)(=O)=O)CC2)c1C` [Compound 17] showed an EC50 of under 100 nM. `CS(=O)(=O)N[C@H]1CCN(c2ccncn2)C[C@H]1CO[C@H]1CC[C@@H](c2ccccc2)CC1` [Compound 20]: the EC50 was under 100 nM. Still for that read-out and setting: as for `CS(=O)(=O)N[C@H]1CCN(c2ccc(F)cn2)C[C@H]1CO[C@H]1CC[C@@H](c2ccccc2)CC1` [Compound 24], the figure is under 100 nM; as for `CS(=O)(=O)N[C@H]1CCN(Cc2ccncc2)C[C@H]1CO[C@H]1CC[C@@H](c2ccccc2)CC1` [Compound 41], over 1000 nM; as for `Cc1cccc([C@H]2CC[C@@H](OC[C@@H]3CN(c4ccccn4)CC[C@@H]3NS(C)(=O)=O)CC2)c1` [Compound 16], under 100 nM. Still for that read-out and setting: to `CS(=O)(=O)N[C@H]1CCN(c2ccccn2)C[C@H]1CO[C@H]1CC[C@@H](c2cccc(C#N)c2)CC1` [Compound 35] belongs under 100 nM; to `CS(=O)(=O)N[C@H]1CCN(c2ccccn2)C[C@H]1CO[C@H]1CC[C@@H](c2ccncn2)CC1` [Compound 8], over 1000 nM. Same read-out and setting: to `CS(=O)(=O)N[C@H]1CCN(c2cnccn2)C[C@H]1CO[C@H]1CC[C@@H](c2ccccc2)CC1` [Compound 21] belongs under 100 nM; to `Cc1ccccc1[C@H]1CC[C@@H](OC[C@@H]2CN(c3ccccn3)CC[C@@H]2NS(C)(=O)=O)CC1` [Compound 15], under 100 nM; to `CS(=O)(=O)N[C@H]1CCN(c2ccccn2)C[C@H]1CO[C@H]1CC[C@@H](c2ccc(O)cc2)CC1` [Compound 32], under 100 nM. For the molecule `CS(=O)(=O)N[C@H]1CCN(c2ccccn2)C[C@H]1CO[C@H]1CC[C@@H](c2cccnn2)CC1` [Compound 14], the EC50 was over 1000 nM. Still for that read-out and setting: as for `CS(=O)(=O)N[C@H]1CCN(c2ncccn2)C[C@H]1CO[C@H]1CC[C@@H](c2ccccc2)CC1` [Compound 19], the figure is under 100 nM; as for `CS(=O)(=O)N[C@H]1CCN(c2ccccn2)C[C@H]1CO[C@H]1CC[C@@H](c2ncccn2)CC1` [Compound 11], over 1000 nM.

In turn, `CS(=O)(=O)N[C@H]1CCN(c2ccccn2)C[C@H]1CO[C@H]1CC[C@@H](c2cccnc2)CC1` [Compound 3] returned an EC50 of under 100 nM. With `CS(=O)(=O)N[C@H]1CCN(c2ccccn2)C[C@H]1CO[C@H]1CC[C@@H](c2cccc(O)c2)CC1` [Compound 31], the EC50 was under 100 nM. The same measure, in the same setting: as for `CS(=O)(=O)N[C@H]1CCN(c2ccccn2)C[C@H]1CO[C@H]1CC[C@@H](c2ccccc2O)CC1` [Compound 30], the figure is 100 to 1000 nM; as for `CS(=O)(=O)N[C@H]1CCN(c2cccc(F)n2)C[C@H]1CO[C@H]1CC[C@@H](c2ccccc2)CC1` [Compound 23], under 100 nM; as for `CS(=O)(=O)N[C@H]1CCN(c2ncccc2O)C[C@H]1CO[C@H]1CC[C@@H](c2ccccc2)CC1` [Compound 27], under 100 nM. Still for that read-out and setting: to `CS(=O)(=O)N[C@H]1CCN(c2ccccn2)C[C@H]1CO[C@H]1CC[C@@H](c2ccccc2F)CC1` [Compound 5] belongs under 100 nM; to `CS(=O)(=O)N[C@H]1CCN(c2ccccn2)C[C@H]1CO[C@H]1CC[C@@H](c2ccnnc2)CC1` [Compound 13], over 1000 nM. With `CS(=O)(=O)N[C@H]1CCN(c2ccccn2)C[C@H]1CO[C@H]1CC[C@@H](c2ccc(F)cc2)CC1` [Compound 7], the EC50 was under 100 nM. On the same count and under the same terms, to `CS(=O)(=O)N[C@H]1CCN(Cc2ccccn2)C[C@H]1CO[C@H]1CC[C@@H](c2ccccc2)CC1` [Compound 39] belongs over 1000 nM. Same read-out and setting: as for `CS(=O)(=O)N[C@H]1CCN(c2ncccc2C(F)(F)F)C[C@H]1CO[C@H]1CC[C@@H](c2ccccc2)CC1` [Compound 28], the figure is under 100 nM; as for `Cc1cc(C)cc([C@H]2CC[C@@H](OC[C@@H]3CN(c4ccccn4)CC[C@@H]3NS(C)(=O)=O)CC2)c1` [Compound 18], under 100 nM; as for `CS(=O)(=O)N[C@H]1CCN(c2cccc3ccnn23)C[C@H]1CO[C@H]1CC[C@@H](c2ccccc2)CC1` [Compound 42], over 1000 nM. On the same count and under the same terms, to `CS(=O)(=O)N[C@H]1CCN(c2cccnn2)C[C@H]1CO[C@H]1CC[C@@H](c2ccccc2)CC1` [Compound 22] belongs under 100 nM; to `C[C@@]1(CO[C@H]2CC[C@@H](c3ccccc3)CC2)CN(c2ccccn2)CC[C@@H]1NS(C)(=O)=O` [Compound 29], under 100 nM; to `CS(=O)(=O)N[C@H]1CCN(c2ncccc2F)C[C@H]1CO[C@H]1CC[C@@H](c2ccccc2)CC1` [Compound 26], under 100 nM.

Turning to `CS(=O)(=O)N[C@H]1CCN(c2ccccn2)C[C@H]1CO[C@H]1CC[C@@H](c2ccccc2)CC1` [Compound 10], the EC50 was under 100 nM. Same read-out and setting: to `CS(=O)(=O)N[C@H]1CCN(Cc2cccnc2)C[C@H]1CO[C@H]1CC[C@@H](c2ccccc2)CC1` [Compound 40] belongs over 1000 nM; to `CS(=O)(=O)N[C@H]1CCN(c2ccccn2)C[C@H]1CO[C@H]1CC[C@@H](c2cccc(C(F)(F)F)c2)CC1` [Compound 33], 100 to 1000 nM; to `CS(=O)(=O)N[C@H]1CCN(c2cccc3ncnn23)C[C@H]1CO[C@H]1CC[C@@H](c2ccccc2)CC1` [Compound 43], over 1000 nM.
